Experimental data taken from US20240237690A1, “Licorice Compounds and Their Use as Flavor Modifiers” (Firmenich SA, priority 2021, published 2024).

Tests used:
Format in all cases: in vivo, human
[1] = tested on: bitter taste of 10 ppm mixture of Limonin, Naringin, and Normilin; test: Sensory testing by trained taste panel: bitter taste, citrus bitter mixture; conditions: mean of 20 trained panelists, scale −5 to 5, compound at 10 or 40 ppm, ED at 40 ppm, 0 = reference 10 ppm mixture of Limonin
Source text: (§1) A panel consisted in 20 trained taste panelists evaluated samples of each of Compounds 101-106 at 10 or 40 ppm for taste properties (sweet, licorice, lingering, bitter or astringent) on a scale of −5 to 5 (−5 to −4 denoted strong masking effect, −4 to −3 denoted moderate masking effect, −3 to −2 denoted masking effect, −2 to 0 denoted weak masking effect, while 5 to 4 denoted strong enhancing effect, 4 to 3 denoted moderate enhancing effect, 3 to 2 denoted enhancing effect, 2 to 0 denoted weak enhancing effect, 0 being equal to the intensity of a reference water solution containing 4% sucrose or 0.02% SG95 (>95% steviol glycosides) or 10 ppm mixture of Limonin, Naringin, and Normilin (for bitter and astringent). Note that ED and HED refers to eriodictyol or homoeriodictyol, respectively, at a concentration of 40 ppm.

[2] = tested on: sweet taste of water solution containing 4% sucrose; test: Sensory testing by trained taste panel: sweet taste, sucrose reference; conditions: mean of 20 trained panelists, scale −5 to 5; compound at 10 or 40 ppm; 0 = reference water solution containing 4% sucrose
Source text: as §1

[3] = tested on: astringent taste of 10 ppm mixture of Limonin, Naringin, and Normilin; test: Sensory testing by trained taste panel: astringent taste, citrus bitter mixture; conditions: mean of 20 trained panelists, scale −5 to 5, compound at 10 or 40 ppm, ED at 40 ppm, 0 = reference 10 ppm mixture of Limonin
Source text: as §1

[4] = tested on: lingering taste of 0.02% SG95 (>95% steviol glycosides); test: Sensory testing by trained taste panel: lingering, SG95 reference; conditions: mean of 20 trained panelists, scale −5 to 5; compound at 10 or 40 ppm; 0 = reference 0.02% SG95
Source text: as §1

SMILES	Bitter (Limonin, Naringin, and Normilin) [1]	Sweet (sucrose) [2]	Astringent (Limonin, Naringin, and Normilin) [3]	Lingering (SG95) [4]
O=C1C[C@@H](c2ccc(O[C@@H]3O[C@H](CO)[C@@H](O)[C@H](O)[C@H]3O)cc2)Oc2cc(O)ccc21 [Compound 101, liquiritin]	Mask (−3 to −2 denoted masking effect)	Enhance (3 to 2 denoted enhancing effect)	–	–
O=C(/C=C/c1ccc(O)cc1)c1ccc(O)cc1O [Compound 104, isoliquiritigenin]	–	Enhance (3 to 2 denoted enhancing effect)	–	–
O=C1C[C@@H](c2ccc(O)c(O)c2)Oc2cc(O)cc(O)c21 [ED, eriodictyol, reference compound]	Mask (−3 to −2 denoted masking effect)	–	–	–
O=C1C[C@@H](c2ccc(O)cc2)Oc2cc(O)ccc21 [Compound 102, liquiritigenin]	Mask (−3 to −2 denoted masking effect)	–	Mask (−3 to −2 denoted masking effect)	Mask (−3 to −2 denoted masking effect)
